Patent US20250205207A1, “MATRIX TABLETS OF DEXPRAMIPEXOLE AND METHODS OF MANUFACTURING AND USE THEREOF” (Areteia Therapeutics, Inc., priority 2023, published 2025)

What was measured:
[1] = during tablet manufacture and storage
[2] = across the physiological pH range; cited from earlier work
dopamine receptors = settings: compared to pramipexole; cited from earlier work
[3] = test system: eosinophil counts in human blood and tissues; settings: cited from earlier work

| chiral purity over time [1] | SMILES | solubility [2] | affinity for dopamine receptors (dopamine receptors) | effect on eosinophil counts [3] |
| --- | --- | --- | --- | --- |
| did not change over time | CCCN[C@@H]1CCc2nc(N)sc2C1 | freely soluble |  |  |
|  | CCCN[C@@H]1CCc2nc(N)sc2C1 [dexpramipexole, (6R)-2-amino-4,5,6,7-tetrahydro-6-(propylamino)benzothiazole] |  | greatly reduced when compared to pramipexole | selectively and significantly lower eosinophil counts |
